According to PubChem BioAssay (NCI):
Where “and” joins values, the source holds several entries; their conditions need not be identical. Identical values can stand only once.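 Protocol summary: plate cells (96-well), add compound at 5 concentrations, incubate 48 h, interpolate endpoints linearly. GI50 = concentration required for 50% inhibition of growth. TGI: concentration producing complete growth inhibition.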

Tests used:
Experiment in all cases: NCI-60 cell line screen, 48 h
BT-549 breast = tested on: BT-549 breast
UO-31 renal = tested on: UO-31 renal
HOP-62 NSCLC = tested on: HOP-62 NSCLC
K-562 leukemia = tested on: K-562 leukemia
OVCAR-8 ovarian = tested on: OVCAR-8 ovarian
HS 578T breast = tested on: HS 578T breast
MALME-3M melanoma = tested on: MALME-3M melanoma
OVCAR-5 ovarian = tested on: OVCAR-5 ovarian

SMILES | GI50 (BT-549 breast) | TGI (BT-549 breast) | GI50 (UO-31 renal) | TGI (UO-31 renal) | GI50 (HOP-62 NSCLC) | TGI (HOP-62 NSCLC) | GI50 (K-562 leukemia) | TGI (K-562 leukemia) [µM] | GI50 (OVCAR-8 ovarian) | TGI (OVCAR-8 ovarian) | GI50 (HS 578T breast) | TGI (HS 578T breast) | GI50 (MALME-3M melanoma) | TGI (MALME-3M melanoma) | GI50 (OVCAR-5 ovarian) | TGI (OVCAR-5 ovarian)
c1ccc(-c2nn3c(c2-c2ccnc4cc(OCCN5CCOCC5)ccc24)CCC3)nc1 | > 79.9 µM | > 100 µM | 10.8 µM | > 100 µM | 99.4 µM | > 100 µM | 30.3 µM | > 100 | > 82.6 µM | > 100 µM | > 100 µM | > 100 µM | 90.3 µM | > 100 µM | 72.1 µM | > 100 µM
O=C1CCc2c(sc3[nH]c(=S)n(-c4cc(C(F)(F)F)cc(C(F)(F)F)c4)c(=O)c23)C1 | 0.325 µM | 1.99 µM | 0.292 µM | 1.11 µM | 0.553 µM | 11.8 µM | 0.185 µM | > 73.1 | 0.457 µM | > 37.8 µM | 0.339 µM | 16.4 µM | 0.462 µM | 2.77 µM | 0.438 µM | 2.19 µM
COc1cc(-c2nc3ccccc3s2)ccc1OCCCCOc1cc2c(cc1OC)C(=O)N1CCC[C@H]1C=N2 |  |  | 1.17 µM | 4.06 µM | 1.56 µM | 3.37 µM | 0.372 µM | 5.88 | 1.99 µM | 22.7 µM | 1.23 µM | 4.47 µM | 1.55 µM | 3.46 µM | 1.13 µM | 4.93 µM
O=C1NC(N/N=C\C(O)C(O)C(O)C(O)CO)=N/C1=C/c1ccccc1 (stereo unspecified) | 80.6 µM and 16.3 µM and > 100 µM | > 100 µM and 38.7 µM | > 100 µM and 17.3 µM | > 100 µM and 32.2 µM | > 100 µM and 19.4 µM | > 100 µM and 36.2 µM | 67.6 µM and 33.8 µM and 28.8 µM | > 100 | > 100 µM and 22.8 µM | > 100 µM and 52.5 µM | > 100 µM and 24.6 µM | > 100 µM and 73.4 µM | > 100 µM and 19.3 µM | > 100 µM and 37.6 µM | > 100 µM and 24.4 µM | > 100 µM and 44.9 µM
O=[N+]([O-])c1cc[n+]([O-])c2ccccc12 | 0.2 µM | 0.728 µM | 0.191 µM | 0.604 µM | 0.221 µM | 1.13 µM | 0.26 µM | 2.07 | 0.33 µM | 2.12 µM | 0.216 µM | 0.703 µM | 0.147 µM | 1.12 µM | 2.42 µM | 6.1 µM
C1=C(c2ccccc2)C(N2CCOCC2)Oc2ccccc21 (stereo unspecified) |  | > 100 µM |  | > 100 µM |  | > 100 µM |  | > 100 |  | > 100 µM |  | > 100 µM |  | > 100 µM |  | > 100 µM
N#C/C(=C/C=C/c1ccco1)C(N)=O |  |  |  | > 10 µM |  | > 10 µM |  |  |  | > 10 µM |  | > 10 µM |  | > 10 µM |  | > 10 µM
CN1C(=O)c2ccc3ccccc3c2C1=O |  | > 100 µM |  | > 100 µM |  | > 100 µM |  | > 100 |  | > 100 µM |  | > 100 µM |  |  |  | > 100 µM
COc1ccc2c(c1)[n+](=O)c(C(=O)c1cccs1)c(C(F)(F)F)n2[O-] | 1.3 µM | 6.57 µM | 1.83 µM | 17.6 µM | 12.1 µM | > 50 µM | 2.56 µM | > 50 | 2.79 µM | > 50 µM |  |  |  |  | 4.81 µM | > 50 µM
Cc1ccc(/C=C(\C#N)c2cc3ccccc3n2C)cc1 | 0.742 µM | > 26.7 µM | 0.853 µM | > 100 µM | 0.474 µM | > 100 µM | 0.153 µM | > 100 | 0.565 µM | > 100 µM | 0.448 µM | > 100 µM |  |  | 0.632 µM | > 100 µM
Oc1c(C(Nc2ccccc2Br)c2ccccc2)ccc2cccnc12 (stereo unspecified) |  |  | 1.32 µM | 45.8 µM | 2.28 µM | 19.7 µM | 2.3 µM | > 100 | 2.11 µM | > 100 µM | 10.7 µM | > 100 µM | 4.42 µM | 29.2 µM | 5.34 µM | 51.7 µM
CNC(=O)NCC1OC(n2cnc3c(NC(=O)Nc4ccccc4)ncnc32)C(O[Si](C)(C)C(C)(C)C)C1O[Si](C)(C)C(C)(C)C (stereo unspecified) | 2.94 µM | 8.18 µM | 2.5 µM | 9.56 µM | 4.98 µM | 17.1 µM |  |  | 4.01 µM | 40.1 µM |  |  | 2.98 µM | 9.84 µM | 5.24 µM | 25.2 µM
CCCCCCCCCCCC1=NC(C)(C)CN1C(C)(C)CO | 9.89 µM | 22 µM | 2.03 µM | 8.42 µM | 2.72 µM | 9.53 µM | 1.84 µM | 4.38 | 3.33 µM | 13.4 µM | 1.45 µM | 3.48 µM |  |  | 3.61 µM | 15 µM
O=C(Oc1cccc(Cl)c1)c1ccccc1Nc1ccnc(C(F)(F)F)c1 | 6.77 µM | 27.6 µM | 23.5 µM | > 100 µM | 24.9 µM | 44.7 µM | 3.27 µM | 34.3 | 3.52 µM | 18.1 µM | 20.8 µM | 61 µM |  |  | 13.8 µM | 57 µM
COc1ccc2c(c1)/C(=C\c1ccncc1)C(=O)N2 | 12.5 µM | 32.4 µM | 6.73 µM | 19.3 µM | 21.8 µM | 41 µM | 3.41 µM | 9.56 | 10.3 µM | 32.7 µM | 27.4 µM | 82.1 µM |  |  | 23 µM | 49.2 µM
Cc1ccc(/C=C/c2c(C(=O)/C=C/c3ccccc3)c(C)nc3ccccc23)cc1 | 1.75 µM | 4.36 µM | 1.26 µM | 2.52 µM | 1.74 µM | 3.49 µM | 1.73 µM | 5.38 | 1.83 µM | 5.46 µM |  |  | 1.74 µM | 3.18 µM | 1.9 µM | 3.53 µM
COc1cc2c(cc1OC)-c1ncc3c(OC)ccc(OC)c3c1C2 | 11.1 µM | 32.5 µM | 18.3 µM | 60 µM | 21.4 µM | 61.3 µM | 12.3 µM | 82 | 2.36 µM | 38.2 µM | 8.05 µM | 42.4 µM |  |  | 44 µM | > 100 µM
